# Tested on: MV-4-11 cells
# Assay: Gene expression microarray analysis (Affymetrix PrimeView) and GSEA
# Type: cell-based, human
# Parameters: RFU PODN (11730768_x_at) / Fold change /veh PODN (11730768_x_at) / RFU LINC00158 (11744669_a_at) / Fold change /veh LINC00158 (11744669_a_at) / RFU DUSP10 (11751237_a_at) / Fold change /veh DUSP10 (11751237_a_at) / RFU ID3 (11757404_x_at) / Fold change /veh ID3 (11757404_x_at) / RFU PLEKHG5 (11737974_s_at) / Fold change /veh PLEKHG5 (11737974_s_at) / RFU LRRC4B (11730491_at) / Fold change /veh LRRC4B (11730491_at) / RFU GIMAP4 (11747438_a_at) / Fold change /veh GIMAP4 (11747438_a_at) / RFU KRT8 (11758183_x_at) / Fold change /veh KRT8 (11758183_x_at) / RFU CNN1 (11734310_a_at) / Fold change /veh CNN1 (11734310_a_at) / RFU VPS37D (11726825_at) / Fold change /veh VPS37D (11726825_at) / RFU C10orf10 (11716522_x_at) / Fold change /veh C10orf10 (11716522_x_at) / RFU KIR2DL2 /// KIR2DL4 /// KIR2DL5A /// KIR2DL5B /// KIR2DS1 /// KIR2DS2 /// KIR2DS3 /// KIR2DS4 /// KIR3DL3 /// KIR3DL3 /// KIR3DS1 (11738374_at) / Fold change /veh KIR2DL2 /// KIR2DL4 /// KIR2DL5A /// KIR2DL5B /// KIR2DS1 /// KIR2DS2 /// KIR2DS3 /// KIR2DS4 /// KIR3DL3 /// KIR3DL3 /// KIR3DS1 (11738374_at) / RFU C1QL1 (11718748_at) / Fold change /veh C1QL1 (11718748_at) / RFU TMPRSS4 (11747572_a_at) / Fold change /veh TMPRSS4 (11747572_a_at) / RFU HAMP (11756126_x_at) / Fold change /veh HAMP (11756126_x_at) / RFU RNFT2 (11725882_a_at) / Fold change /veh RNFT2 (11725882_a_at) / RFU NR4A2 (11747474_a_at) / Fold change /veh NR4A2 (11747474_a_at) / RFU ABCC12 (11746883_a_at) / Fold change /veh ABCC12 (11746883_a_at) / RFU TMEM136 (11760407_x_at) / Fold change /veh TMEM136 (11760407_x_at) / RFU CLDN22 /// WWC2 (11732394_at) / Fold change /veh CLDN22 /// WWC2 (11732394_at) / RFU HLA-DPB1 (11760878_x_at) / Fold change /veh HLA-DPB1 (11760878_x_at) / RFU SPINT1 (11716480_a_at) / Fold change /veh SPINT1 (11716480_a_at) / RFU GAP43 (11754022_s_at) / Fold change /veh GAP43 (11754022_s_at) / RFU A4GNT (11735810_at) / Fold change /veh A4GNT (11735810_at) / RFU PRB3 (11715151_x_at) / Fold change /veh PRB3 (11715151_x_at) / RFU TUBB4B (11761932_at) / Fold change /veh TUBB4B (11761932_at) / RFU CAPN14 (11732068_a_at) / Fold change /veh CAPN14 (11732068_a_at) / RFU TMCC2 (11721928_a_at) / Fold change /veh TMCC2 (11721928_a_at) / RFU IRGQ (11745062_a_at) / Fold change /veh IRGQ (11745062_a_at) / RFU FAM174B (11720279_a_at) / Fold change /veh FAM174B (11720279_a_at) / RFU TMPRSS4 (11748680_a_at) / Fold change /veh TMPRSS4 (11748680_a_at) / RFU FAM212B (11763350_a_at) / Fold change /veh FAM212B (11763350_a_at) / RFU PLEKHG5 (11743358_a_at) / Fold change /veh PLEKHG5 (11743358_a_at) / RFU ZSCAN30 (11745921_a_at) / Fold change /veh ZSCAN30 (11745921_a_at) / RFU CMKLR1 (11741424_a_at) / Fold change /veh CMKLR1 (11741424_a_at) / RFU LOC101060620 /// MAPK8IP1 (11723275_at) / Fold change /veh LOC101060620 /// MAPK8IP1 (11723275_at) / RFU SPTSSB (11747773_x_at) / Fold change /veh SPTSSB (11747773_x_at) / RFU PRSS12 (11739890_at) / Fold change /veh PRSS12 (11739890_at) / RFU BIN1 (11741810_x_at) / Fold change /veh BIN1 (11741810_x_at) / RFU WNT11 (11732464_a_at) / Fold change /veh WNT11 (11732464_a_at) / RFU C10orf10 (11716521_a_at) / Fold change /veh C10orf10 (11716521_a_at) / RFU C5orf56 (11738089_at) / Fold change /veh C5orf56 (11738089_at) / RFU CYB561 (11721691_x_at) / Fold change /veh CYB561 (11721691_x_at) / RFU ANKRD19P (11752326_a_at) / Fold change /veh ANKRD19P (11752326_a_at) / RFU OR2T12 /// OR2T33 /// OR2T8 (11738714_s_at) / Fold change /veh OR2T12 /// OR2T33 /// OR2T8 (11738714_s_at) / RFU VCAN (11748164_a_at) / Fold change /veh VCAN (11748164_a_at) / RFU JSRP1 (11732532_at) / Fold change /veh JSRP1 (11732532_at) / RFU KRTAP10-11 (11738290_x_at) / Fold change /veh KRTAP10-11 (11738290_x_at) / RFU MYO3A (11730013_a_at) / Fold change /veh MYO3A (11730013_a_at) / RFU EBF3 (11725865_a_at) / Fold change /veh EBF3 (11725865_a_at) / RFU CAMK2N1 (11719241_x_at) / Fold change /veh CAMK2N1 (11719241_x_at) / RFU C5orf56 (11738088_a_at) / Fold change /veh C5orf56 (11738088_a_at) / RFU OLFML3 (11715873_a_at) / Fold change /veh OLFML3 (11715873_a_at) / RFU LOC100653217 /// NTM (11731650_a_at) / Fold change /veh LOC100653217 /// NTM (11731650_a_at) / RFU MAPK11 (11762145_a_at) / Fold change /veh MAPK11 (11762145_a_at) / RFU FIZ1 (11724087_x_at) / Fold change /veh FIZ1 (11724087_x_at) / RFU OASL (11726364_x_at) / Fold change /veh OASL (11726364_x_at) / RFU SOX15 (11748057_x_at) / Fold change /veh SOX15 (11748057_x_at) / RFU CD79A (11719716_a_at) / Fold change /veh CD79A (11719716_a_at) / RFU HIST1H1D (11736915_at) / Fold change /veh HIST1H1D (11736915_at) / RFU CASKIN2 (11723855_a_at) / Fold change /veh CASKIN2 (11723855_a_at) / RFU LOC730098 (11760151_x_at) / Fold change /veh LOC730098 (11760151_x_at) / RFU OR4N2 (11742367_at) / Fold change /veh OR4N2 (11742367_at) / RFU PRRT2 (11749266_a_at) / Fold change /veh PRRT2 (11749266_a_at) / RFU SNX32 (11753110_a_at) / Fold change /veh SNX32 (11753110_a_at) / RFU CDHR5 (11726645_a_at) / Fold change /veh CDHR5 (11726645_a_at) / RFU RCAN1 (11760418_a_at) / Fold change /veh RCAN1 (11760418_a_at) / RFU FAM167A (11723789_a_at) / Fold change /veh FAM167A (11723789_a_at) / RFU FAM26E (11764081_at) / Fold change /veh FAM26E (11764081_at) / RFU ISYNA1 (11749810_s_at) / Fold change /veh ISYNA1 (11749810_s_at) / RFU ACY1 (11761880_at) / Fold change /veh ACY1 (11761880_at) / RFU 11764098_at / Fold change /veh 11764098_at / RFU SAMD14 (11745864_x_at) / Fold change /veh SAMD14 (11745864_x_at) / RFU NPB (11741838_a_at) / Fold change /veh NPB (11741838_a_at) / RFU TMPRSS6 (11731388_a_at) / Fold change /veh TMPRSS6 (11731388_a_at) / RFU KRTAP10-2 (11738614_at) / Fold change /veh KRTAP10-2 (11738614_at) / RFU ARHGAP8 /// PRR5-ARHGAP8 (11727945_x_at) / Fold change /veh ARHGAP8 /// PRR5-ARHGAP8 (11727945_x_at) / RFU KRTAP5-7 /// NADSYN1 (11734609_at) / Fold change /veh KRTAP5-7 /// NADSYN1 (11734609_at) / RFU RASL12 (11751679_a_at) / Fold change /veh RASL12 (11751679_a_at) / RFU CDKN2B (11736163_a_at) / Fold change /veh CDKN2B (11736163_a_at) / RFU PRF1 (11729649_at) / Fold change /veh PRF1 (11729649_at) / RFU, ZNF638 /// ZNF638-IT1 / Fold change vs veh, ZNF638 /// ZNF638-IT1 / RFU, PANK3 / Fold change vs veh, PANK3 / RFU, SH3YL1 / Fold change vs veh, SH3YL1 / RFU, ZEB2 / Fold change vs veh, ZEB2 / RFU, NRIP1 / Fold change vs veh, NRIP1 / RFU, PTTG1IP / Fold change vs veh, PTTG1IP / RFU, CAPN2 / Fold change vs veh, CAPN2 / RFU, MED14 / Fold change vs veh, MED14 / RFU, SNORA58 / Fold change vs veh, SNORA58 / RFU, C1orf63 / Fold change vs veh, C1orf63 / RFU, LRRFIP1 / Fold change vs veh, LRRFIP1 / RFU, NDUFAF7 / Fold change vs veh, NDUFAF7 / RFU, SLC12A2 / Fold change vs veh, SLC12A2 / RFU, IBTK / Fold change vs veh, IBTK / RFU, ESF1 / Fold change vs veh, ESF1 / Fold change vs veh, TMEM50B / RFU, TAOK1 / Fold change vs veh, TAOK1 / RFU, ACBD3 / Fold change vs veh, ACBD3 / RFU, TMA16 / Fold change vs veh, TMA16 / RFU, RWDD3 / Fold change vs veh, RWDD3 / RFU, BCAT1 / Fold change vs veh, BCAT1 / RFU, EDEM3 / Fold change vs veh, EDEM3 / RFU, TMEM33 / Fold change vs veh, TMEM33 / RFU, WDR75 / Fold change vs veh, WDR75 / RFU, AHCTF1 / Fold change vs veh, AHCTF1 / RFU, TFRC / Fold change vs veh, TFRC / RFU, ZDHHC17 / Fold change vs veh, ZDHHC17 / RFU, NOM1 / Fold change vs veh, NOM1 / RFU, ARL8B / Fold change vs veh, ARL8B / RFU, ZBTB11 / Fold change vs veh, ZBTB11 / RFU, TAMM41 / Fold change vs veh, TAMM41 / RFU, KIAA1704 /// LOC100996395 / Fold change vs veh, KIAA1704 /// LOC100996395 / RFU, ING1 / Fold change vs veh, ING1 / RFU, TRMT61B / Fold change vs veh, TRMT61B / RFU, FUBP3 / Fold change vs veh, FUBP3 / RFU, TP53 / Fold change vs veh, TP53 / RFU, TNKS2 / Fold change vs veh, TNKS2 / RFU, ZFP14 / Fold change vs veh, ZFP14 / RFU, ACTR2 / Fold change vs veh, ACTR2 / RFU, PPP3R1 / Fold change vs veh, PPP3R1 / RFU, PIK3R1 / Fold change vs veh, PIK3R1 / RFU, HNRNPA1 / Fold change vs veh, HNRNPA1 / RFU, RNF170 / Fold change vs veh, RNF170 / RFU, ZNF28 / Fold change vs veh, ZNF28 / RFU, RNGTT / Fold change vs veh, RNGTT / RFU, OGT / Fold change vs veh, OGT / RFU, BRD1 / Fold change vs veh, BRD1 / RFU, MARS / Fold change vs veh, MARS / RFU, ZNF655 / Fold change vs veh, ZNF655 / RFU, FAHD1 / Fold change vs veh, FAHD1 / RFU, BDP1 / Fold change vs veh, BDP1 / RFU, LRRCC1 / Fold change vs veh, LRRCC1 / RFU, ARID1A / Fold change vs veh, ARID1A / RFU, ZNF146 / Fold change vs veh, ZNF146 / RFU, ZNF330 / Fold change vs veh, ZNF330 / RFU, GPN3 / Fold change vs veh, GPN3 / RFU, C9orf123 / Fold change vs veh, C9orf123 / RFU, N4BP2L2 / Fold change vs veh, N4BP2L2 / RFU, ARFIP1 / Fold change vs veh, ARFIP1 / RFU, FAM179B / Fold change vs veh, FAM179B / RFU, BCL10 / Fold change vs veh, BCL10 / RFU, UHRF1BP1L / Fold change vs veh, UHRF1BP1L / RFU, BET1 / Fold change vs veh, BET1 / RFU, CNOT2 / Fold change vs veh, CNOT2 / RFU, ZNF268 / Fold change vs veh, ZNF268 / Fold change vs veh, ZNF507 / RFU, DGCR2 / Fold change vs veh, DGCR2 / RFU, WDSUB1 / Fold change vs veh, WDSUB1 / Fold change vs veh, HSP90B1 /// MIR3652 / RFU, ADSS / Fold change vs veh, ADSS / RFU, GK / Fold change vs veh, GK / RFU, ZNF148 / Fold change vs veh, ZNF148 / RFU, TAF9 / Fold change vs veh, TAF9 / RFU, SLC1A5 / Fold change vs veh, SLC1A5 / RFU, SLMO2 / Fold change vs veh, SLMO2 / RFU, ABCC4 / Fold change vs veh, ABCC4 / RFU, LOC101060439 /// RAP1B / Fold change vs veh, LOC101060439 /// RAP1B / RFU, RFX7 / Fold change vs veh, RFX7 / RFU, GTPBP10 / Fold change vs veh, GTPBP10 / RFU, CNEP1R1 / Fold change vs veh, CNEP1R1 / RFU, BIVM-ERCC5 /// ERCC5 / Fold change vs veh, BIVM-ERCC5 /// ERCC5 / RFU, ILF3 / Fold change vs veh, ILF3 / RFU 11762660_at / Fold change /veh 11762660_at / RFU VCAN (11757783_s_at) / Fold change /veh VCAN (11757783_s_at) / RFU DDX43 (11728927_at) / Fold change /veh DDX43 (11728927_at) / RFU KRT8 (11758188_x_at) / Fold change /veh KRT8 (11758188_x_at) / RFU NKD1 (11759106_at) / Fold change /veh NKD1 (11759106_at) / RFU SRD5A1 (11742802_a_at) / Fold change /veh SRD5A1 (11742802_a_at) / RFU TPSAB1 /// TPSB2 (11721975_s_at) / Fold change /veh TPSAB1 /// TPSB2 (11721975_s_at) / RFU GSTM3 (11746129_a_at) / Fold change /veh GSTM3 (11746129_a_at) / RFU IL23R (11737362_x_at) / Fold change /veh IL23R (11737362_x_at) / RFU TMEM51 (11727254_a_at) / Fold change /veh TMEM51 (11727254_a_at) / RFU PIWIL2 (11732686_x_at) / Fold change /veh PIWIL2 (11732686_x_at) / RFU ORM1 (11744905_x_at) / Fold change /veh ORM1 (11744905_x_at) / RFU CCDC152 (11743942_at) / Fold change /veh CCDC152 (11743942_at) / RFU ECM1 (11717891_a_at) / Fold change /veh ECM1 (11717891_a_at) / RFU IL23R (11748794_a_at) / Fold change /veh IL23R (11748794_a_at) / RFU TNFAIP8L3 (11732012_x_at) / Fold change /veh TNFAIP8L3 (11732012_x_at) / RFU MBOAT4 (11741988_at) / Fold change /veh MBOAT4 (11741988_at) / RFU 11764193_at / Fold change /veh 11764193_at / RFU TMEM53 (11763286_at) / Fold change /veh TMEM53 (11763286_at) / RFU MAGEB2 (11727129_at) / Fold change /veh MAGEB2 (11727129_at) / RFU TMEM200A (11744735_a_at) / Fold change /veh TMEM200A (11744735_a_at) / RFU CCDC152 (11751479_a_at) / Fold change /veh CCDC152 (11751479_a_at) / RFU FAM211A (11726209_a_at) / Fold change /veh FAM211A (11726209_a_at) / RFU RGS16 (11746705_a_at) / Fold change /veh RGS16 (11746705_a_at) / RFU VCAN (11755009_s_at) / Fold change /veh VCAN (11755009_s_at) / RFU RHOB (11743442_s_at) / Fold change /veh RHOB (11743442_s_at) / RFU RGS16 (11720943_a_at) / Fold change /veh RGS16 (11720943_a_at) / RFU RGS16 (11720944_at) / Fold change /veh RGS16 (11720944_at) / RFU, VPS4B / Fold change vs veh, VPS4B / RFU, CREB1 / Fold change vs veh, CREB1 / RFU, DNAJC13 / Fold change vs veh, DNAJC13 / RFU, GNAQ / Fold change vs veh, GNAQ / RFU, CDK5R1 / Fold change vs veh, CDK5R1 / RFU, ZRANB3 / Fold change vs veh, ZRANB3 / RFU, CUL4A / Fold change vs veh, CUL4A / RFU, CCNY / Fold change vs veh, CCNY / RFU, UFL1 / Fold change vs veh, UFL1 / RFU, COG3 / Fold change vs veh, COG3 / RFU, DIAPH2 / Fold change vs veh, DIAPH2 / RFU, SKA2 / Fold change vs veh, SKA2 / RFU, AFF3 / Fold change vs veh, AFF3 / RFU, LMF1 / Fold change vs veh, LMF1 / RFU, IPO11 / Fold change vs veh, IPO11 / RFU, DFFB / Fold change vs veh, DFFB / RFU, FOXP1 / Fold change vs veh, FOXP1 / RFU, CARD8 / Fold change vs veh, CARD8 / RFU, STRN3 / Fold change vs veh, STRN3 / RFU, ADK / Fold change vs veh, ADK / RFU, RASSF2 / Fold change vs veh, RASSF2 / RFU, WIPF1 / Fold change vs veh, WIPF1 / RFU, LARP1B / Fold change vs veh, LARP1B / RFU, RASA1 / Fold change vs veh, RASA1 / RFU, RB1 / Fold change vs veh, RB1 / RFU, PPFIA1 / Fold change vs veh, PPFIA1 / RFU, MAT2A / Fold change vs veh, MAT2A / RFU, CCT5 / Fold change vs veh, CCT5 / RFU, WDR92 / Fold change vs veh, WDR92 / RFU, CUX1 / Fold change vs veh, CUX1 / RFU, TTC7A / Fold change vs veh, TTC7A / RFU, TMEM135 / Fold change vs veh, TMEM135 / RFU, DEPTOR / Fold change vs veh, DEPTOR / RFU, CPM / Fold change vs veh, CPM / RFU, DNAJB6 / Fold change vs veh, DNAJB6 / RFU, CACNA2D3 / Fold change vs veh, CACNA2D3 / RFU, DTX4 / Fold change vs veh, DTX4 / RFU, TFCP2 / Fold change vs veh, TFCP2 / RFU, GMCL1 /// GMCL1P1 / Fold change vs veh, GMCL1 /// GMCL1P1 / RFU, AEBP2 / Fold change vs veh, AEBP2 / RFU, SNHG1 /// SNORD22 /// SNORD25 /// SNORD26 /// SNORD27 /// SNORD28 /// SNORD29 /// SNORD31 / Fold change vs veh, SNHG1 /// SNORD22 /// SNORD25 /// SNORD26 /// SNORD27 /// SNORD28 /// SNORD29 /// SNORD31 / Fold change (Aza/veh), C12orf56 (ProbeSet 11735607_a_at) / Fold change (ACY-1035/veh), C12orf56 (ProbeSet 11735607_a_at) / Fold change (Aza/veh), FGFR1OP (ProbeSet 11751329_s_at) / Fold change (ACY-1035/veh), FGFR1OP (ProbeSet 11751329_s_at) / Fold change (Aza/veh), VPS36 (ProbeSet 11739960_a_at) / Fold change (ACY-1035/veh), VPS36 (ProbeSet 11739960_a_at) / RFU SYPL1 (11715823_x_at) / Fold change /veh SYPL1 (11715823_x_at) / RFU IGFBP7 (11715501_s_at) / Fold change /veh IGFBP7 (11715501_s_at) / RFU REEP3 (11722064_at) / Fold change /veh REEP3 (11722064_at) / RFU IGLL1 (11728026_x_at) / Fold change /veh IGLL1 (11728026_x_at): dose or concentration left out as unconfirmed
# Conditions: MV-4-11 cells, 48 hours
smiles,measurement,value
Nc1ncn([C@@H]2O[C@H](CO)[C@@H](O)[C@H]2O)c(=O)n1 [azacitidine],RFU ABCC12 (11746883_a_at),6.52 RFU

# — publication PMC5218480 (PLoS ONE, 2017)
